Experimental data as given in PMC12733323, “Novel Mono-Substituted 4H-1,2,6-Thiadiazines with Antioxidant and Anti-Lipoxygenase Activities” (International Journal of Molecular Sciences, 2025).
Where two headings read alike, the source gives them in different places.

Assays:
soybean lipoxygenase = target: T1, soybean lipoxygenase (Glycine max, UniProt P08170); assay: Inhibition of soybean lipoxygenase; assay type: biochemical; conditions: for inhibition at 100 µM: read-out: LOX % Inhibition 100 μM
T1 sequence (P08170 1-839): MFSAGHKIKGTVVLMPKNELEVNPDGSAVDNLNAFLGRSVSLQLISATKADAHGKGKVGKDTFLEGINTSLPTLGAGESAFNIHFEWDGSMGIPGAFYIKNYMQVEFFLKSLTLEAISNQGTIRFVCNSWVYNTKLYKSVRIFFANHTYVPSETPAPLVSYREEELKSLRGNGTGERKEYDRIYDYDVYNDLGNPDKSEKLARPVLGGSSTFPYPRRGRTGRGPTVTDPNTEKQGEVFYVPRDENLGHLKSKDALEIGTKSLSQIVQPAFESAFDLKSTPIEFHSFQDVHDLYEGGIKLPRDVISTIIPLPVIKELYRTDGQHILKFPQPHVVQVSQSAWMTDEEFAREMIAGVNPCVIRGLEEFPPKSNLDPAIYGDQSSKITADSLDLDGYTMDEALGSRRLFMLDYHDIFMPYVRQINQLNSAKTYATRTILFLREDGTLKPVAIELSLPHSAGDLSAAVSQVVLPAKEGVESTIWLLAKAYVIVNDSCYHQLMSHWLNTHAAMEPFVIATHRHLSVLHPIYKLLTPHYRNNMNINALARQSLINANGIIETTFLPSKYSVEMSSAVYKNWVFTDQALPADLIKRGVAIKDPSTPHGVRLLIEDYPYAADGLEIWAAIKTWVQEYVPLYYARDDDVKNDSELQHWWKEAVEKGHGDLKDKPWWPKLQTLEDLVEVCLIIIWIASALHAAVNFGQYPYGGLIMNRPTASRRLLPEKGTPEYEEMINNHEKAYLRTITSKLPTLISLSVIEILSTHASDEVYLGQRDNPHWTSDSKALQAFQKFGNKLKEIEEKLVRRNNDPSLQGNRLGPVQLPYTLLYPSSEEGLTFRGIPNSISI
Protocol: Lipoxygenase (LOX) plays a key role in the formation of leukotrienes, which are important inflammatory mediators. Leukotrienes are considered key therapeutic targets in inflammatory diseases due to their role. Soybean lipoxygenase (LOX), a plant-based enzyme, has long been used as a model system to study the structural and functional characteristics of the lipoxygenase family due to its significant homology with human 5-LOX [39].
Sodium linoleate (0.1 mM), 0.2 mL of soybean lipoxygenase solution (1/9 × 10^−4 w/v in saline), and 10 μL of the test compound stock solution (10 mM in DMSO) were incubated at room temperature. The formation of 13-hydroperoxy-linoleic acid was monitored by measuring absorbance at 234 nm. […] A couple of concentrations of the test compounds were used to calculate the IC50 values.

[1] = Inhibition of AAPH-induced linoleic acid peroxidation
Source text: In the lipid peroxidation assay, sodium linoleate was used as the substrate, while 2,2′-azobis(2-methylpropionamidine) dihydrochloride (AAPH) was the peroxyl radical initiator. The formation of 13-hydroperoxy-linoleic acid from linoleic acid was observed by UV-Vis absorption measurements at 234 nm. Trolox was used as a reference compound.
AAPH was used as an alkyl peroxyl radical inducer. In this experiment, the compounds’ ability to prevent linoleic acid oxidation by alkyl peroxyl radicals through absorbance changes at 234nm was evaluated, corresponding to the production of 13-hydroperoxy-linoleic acid. Trolox was used as the reference compound.

[2] = Interaction with the stable free radical DPPH (reducing activity)
Protocol: The synthesized derivatives were tested for their interaction with the stable free radical 2,2-diphenyl-1-picrylhydrazyl (DPPH) at a concentration of 100 μM after 20 and 60 min (Table 4). DPPH is widely used as a standard method for evaluating antioxidant activity. […] However, lipophilic compounds typically dissolve efficiently in organic solvents when they react with DPPH. The relationship between antioxidant activity and lipophilicity was reported in previous studies.
In vitro assays were carried out to evaluate the reducing activity of the novel derivatives against the DPPH stable radical. Free radical scavenging activity was determined by measuring absorbance at 517 nm after 20 and 60 min at room temperature. NDGA served as the reference compound. (Table 4).

inhibition at 100 µM (soybean lipoxygenase) [%] | IC50 (soybean lipoxygenase; read-out: LOX IC50) [µM] | Compound | IC50 (soybean lipoxygenase) [µM] | %AAPH (100 µM) [1] | RA%, DPPH, 20 min (100 µM) [2] | RA%, DPPH, 60 min (100 µM) [2] | RA%, DPPH, 60 min (100 µM) ([2]; listed as ΝDGA) [%]
 |  | O=c1c(Cl)nsnc1N1CCN(c2ccccc2)CC1 [Compound 9a, 3-Chloro-5-(4-phenylpiperazin-1-yl)-4H-1,2,6-thiadiazin-4-one] | 7.5 | 15% | 7% | 6% | 
 |  | O=c1c(Cl)nsnc1N1CCN(C(c2ccccc2)c2ccccc2)CC1 [Compound 9b, 3-(4-Benzhydrylpiperazin-1-yl)-5-chloro-4H-1,2,6-thiadiazin-4-one] | 55 | 20% | 2% | 2% | 
46 |  | N#CC(C#N)=C1C(Cl)=NSN=C1N1CCN(c2ccccc2)CC1 [Compound 10a, 2-[3-Chloro-5-(4-phenylpiperazin-1-yl)-4H-1,2,6-thiadiazin-4-ylidene]malononitrile] |  | 27% | 16% | 15% | 
 | 67.5 | N#CC(C#N)=C1C(Cl)=NSN=C1N1CCN(C(c2ccccc2)c2ccccc2)CC1 [Compound 10b, 2-[3-(4-Benzhydrylpiperazin-1-yl)-5-chloro-4H-1,2,6-thiadiazin-4-ylidene]malononitrile] |  | No | no | no | 
31 |  | Cc1ccnc(Sc2nsnc(Cl)c2=O)n1 [Compound 11a, 3-Chloro-5-[(4-methylpyrimidin-2-yl)thio]-4H-1,2,6-thiadiazin-4-one] |  | No | 2% | no | 
44 |  | Cn1nnnc1Sc1nsnc(Cl)c1=O [Compound 11b, 3-Chloro-5-[(1-methyl-1H-tetrazol-5-yl)thio]-4H-1,2,6-thiadiazin-4-one] |  | 45% | 3% | 3% | 
 |  | O=c1c(Cl)nsnc1Sc1nc2ccccc2o1 [Compound 11c, 3-(Benzo[d]oxazol-2-ylthio)-5-chloro-4H-1,2,6-thiadiazin-4-one] | 77.5 | 5% | 21% | 22% | 
 |  | CC(=O)Nc1ccc(Sc2nsnc(Cl)c2=O)cc1 [Compound 11d, N-{4-[(5-Chloro-4-oxo-4H-1,2,6-thiadiazin-3-yl)thio]phenyl}acetamide] | 85 | 43% | 1% | 2% | 
50 |  | O=c1c(Cl)nsnc1Sc1nnnn1-c1ccccc1 [Compound 11e, 3-Chloro-5-[(1-phenyl-1H-tetrazol-5-yl)thio]-4H-1,2,6-thiadiazin-4-one] |  | No | 15% | 17% | 
 |  | Cn1cnnc1Sc1nsnc(Cl)c1=O [Compound 11f, 3-Chloro-5-[(4-methyl-4H-1,2,4-triazol-3-yl)thio]-4H-1,2,6-thiadiazin-4-one] | 52.5 | 7% | 10% | 12% | 
40 |  | O=c1c(Cl)nsnc1Sc1nccs1 [Compound 11g, 3-Chloro-5-(thiazol-2-ylthio)-4H-1,2,6-thiadiazin-4-one] |  | No | 10% | 7% | 
33 |  | O=c1c(Cl)nsnc1Sc1nc2ccccc2s1 [Compound 11h, 3-(benzo[d]thiazol-2-ylthio)-5-chloro-4H-1,2,6-thiadiazin-4-one] |  | No | 8% | 1% | 
 |  | CCOc1ccc2nc(Sc3nsnc(Cl)c3=O)sc2c1 [Compound 11i, 3-Chloro-5-[(6-ethoxybenzo[d]thiazol-2-yl)thio]-4H-1,2,6-thiadiazin-4-one] | 67.5 | No | 3% | no | 
41 |  | Cc1ccnc(SC2=NSN=C(Cl)C2=C(C#N)C#N)n1 [Compound 12a, 2-{3-Chloro-5-[(4-methylpyrimidin-2-yl)thio]-4H-1,2,6-thiadiazin-4-ylidene}malononitrile] |  | 18% | 82% | 90% | 
 |  | Cn1nnnc1SC1=NSN=C(Cl)C1=C(C#N)C#N [Compound 12b, 2-{3-Chloro-5-[(1-methyl-1H-tetrazol-5-yl)thio]-4H-1,2,6-thiadiazin-4-ylidene}malononitrile] | 75 | No | 27% | 36% | 
27 |  | N#CC(C#N)=C1C(Cl)=NSN=C1Sc1nc2ccccc2o1 [Compound 12c, 2-[3-(Benzo[d]oxazol-2-ylthio)-5-chloro-4H-1,2,6-thiadiazin-4-ylidene]malononitrile] |  | 70% | 89% | 92% | 
 |  | CC(Cc1ccc(O)c(O)c1)C(C)Cc1ccc(O)c(O)c1 (centres unmarked) [NDGA, Nordihydroguaiaretic acid, reference compound] |  |  | 87% | 87% | 93
 |  | Cc1c(C)c2c(c(C)c1O)CCC(C)(C(=O)O)O2 (centres unmarked) [Trolox, reference compound] |  | 93% |  |  | 
